Results reported in patent US11130778B2, “CD73 inhibitors” (ORIC Pharmaceuticals, Inc., priority 2019, dated 2021).

Molecular target: T1, CD73 (Homo sapiens, UniProt P21589)
T1 sequence (P21589 27-549): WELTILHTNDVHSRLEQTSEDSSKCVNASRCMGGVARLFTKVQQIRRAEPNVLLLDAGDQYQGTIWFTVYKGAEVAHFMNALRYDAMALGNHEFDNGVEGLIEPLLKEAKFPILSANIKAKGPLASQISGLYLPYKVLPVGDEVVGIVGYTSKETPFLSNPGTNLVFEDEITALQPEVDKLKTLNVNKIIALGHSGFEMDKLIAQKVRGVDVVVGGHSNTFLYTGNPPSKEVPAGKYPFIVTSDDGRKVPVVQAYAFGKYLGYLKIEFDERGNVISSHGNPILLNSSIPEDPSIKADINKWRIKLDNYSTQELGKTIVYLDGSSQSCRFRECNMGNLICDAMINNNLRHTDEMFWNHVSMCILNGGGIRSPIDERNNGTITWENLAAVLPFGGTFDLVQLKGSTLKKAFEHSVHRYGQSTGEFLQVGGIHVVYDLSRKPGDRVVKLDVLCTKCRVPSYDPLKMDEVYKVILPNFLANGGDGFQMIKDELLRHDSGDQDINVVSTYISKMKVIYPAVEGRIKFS
Assay: Biochemical assay of CD73 inhibition (Malachite Green)
Conditions: CD73 0.3208 nM, AMP 15 μM, Tris-HCl pH 7.4, Malachite Green absorbance readout; read-out: CD73_Biochem
Experimental: Example A1: Biochemical Assay
Assay Reaction Conditions
• Assay Volume: 70 μl • Reaction Volume: 50 μl • CD73: 0.3208 nM • AMP:15 μM • Assay Buffer: 2 5 mM Tris-HCL, pH 7.4, 0.01% Brij-35, 0.01% BSA, 5 mM MgCl2 Assay Procedure:
Made dose titration of testing compounds in assay buffer, 10 points 1/2 log titrations in duplicates starting at 100 μM.
Added 25 µl of CD73 to each well for a final concentration of […].
Incubated at RT for 15 min.
Added 25 µl of AMP to each well for a final concentration of 15 μM.
Incubated at RT for 10 min.
Added […] of Malachite Green Reagent A, incubate at RT for 10 min.
Added […] of Malachite Green Reagent B, incubate at RT for 45 min.
Read the Absorbance on Envision plate reader using excitation filter: Cy5 […].
The ability of the compounds disclosed herein to inhibit CD73 activity was quantified and the respective IC50 values were determined. Table 2 provides the biochemical IC50 values of compounds disclosed herein.

SMILES | IC50 [nM]
COCC(COCc1nn[nH]n1)(OC[C@H]1O[C@@H](n2ncc3c(N[C@@H]4CCc5ccccc54)nc(Cl)nc32)[C@H](O)[C@@H]1O)P(=O)(O)O (stereo partly drawn) [Example 56, (1-((2H-tetrazol-5-yl)methoxy)-2-(((2R,3S,4R,5R)-5-(6-chloro-4-(((R)-2,3-dihydro-1H-inden-1-yl)amino)-1H-pyrazolo[3,4-d]pyrimidin-1-yl)-3,4-dihydroxytetrahydrofuran-2-yl)methoxy)-3-methoxypropan-2-yl)phosphonic acid] | ≤ 10
CC(C)CNc1nc(Cl)nc2c1cnn2[C@@H]1O[C@H](CO[C@](CO)(Cc2nn[nH]n2)P(=O)(O)O)[C@@H](O)[C@H]1O [Example 33, ((R)-2-(((2R,3S,4R,5R)-5-(6-chloro-4-(isobutylamino)-1H-pyrazolo[3,4-d]pyrimidin-1-yl)-3,4-dihydroxytetrahydrofuran-2-yl)methoxy)-1-hydroxy-3-(2H-tetrazol-5-yl)propan-2-yl)phosphonic acid] | ≤ 10
COC[C@](Cc1nn[nH]n1)(OC[C@H]1O[C@@H](n2ncc3c(NCC(C)C)nc(Cl)nc32)[C@H](O)[C@@H]1O)P(=O)(O)O [Example 35, ((R)-2-(((2R,3S,4R,5R)-5-(6-chloro-4-(isobutylamino)-1H-pyrazolo[3,4-d]pyrimidin-1-yl)-3,4-dihydroxytetrahydrofuran-2-yl)methoxy)-1-methoxy-3-(2H-tetrazol-5-yl)propan-2-yl)phosphonic acid] | ≤ 10
COC[C@@](Cc1nn[nH]n1)(OC[C@H]1O[C@@H](n2ncc3c(NC(C)C)nc(Cl)nc32)[C@H](O)[C@@H]1O)P(=O)(O)O [Example 30, ((S)-2-(((2R,3S,4R,5R)-5-(6-chloro-4-(isopropylamino)-1H-pyrazolo[3,4-d]pyrimidin-1-yl)-3,4-dihydroxytetrahydrofuran-2-yl)methoxy)-1-methoxy-3-(2H-tetrazol-5-yl)propan-2-yl)phosphonic acid] | 10 to 100
O=P(O)(O)[C@@](CO)(Cc1nn[nH]n1)OC[C@H]1O[C@@H](n2ncc3c(NC4CCCC4)nc(C#CC4CC4)nc32)[C@H](O)[C@@H]1O [Example 50, ((R)-2-(((2R,3S,4R,5R)-5-(4-(cyclopentylamino)-6-(cyclopropylethynyl)-1H-pyrazolo[3,4-d]pyrimidin-1-yl)-3,4-dihydroxytetrahydrofuran-2-yl)methoxy)-1-hydroxy-3-(2H-tetrazol-5-yl)propan-2-yl)phosphonic acid] | ≤ 10
O=P(O)(O)[C@](CO)(Cc1nn[nH]n1)OC[C@H]1O[C@@H](n2ncc3c(NCc4ccccc4Cl)nc(Cl)nc32)[C@H](O)[C@@H]1O (single isomer, unassigned) [Example 4] | 10 to 100
O=P(O)(O)[C@@](CO)(Cc1nn[nH]n1)OC[C@H]1O[C@@H](n2ncc3c(NCc4ccccc4Cl)nc(Cl)nc32)[C@H](O)[C@@H]1O (single isomer, unassigned) [Example 3] | ≤ 10
COC[C@](Cc1nn[nH]n1)(OC[C@H]1O[C@@H](n2ncc3c(NC4CCC4)nc(CO)nc32)[C@H](O)[C@@H]1O)P(=O)(O)O [Example 9, ((R)-2-(((2R,3S,4R,5R)-5-(4-(cyclobutylamino)-6-(hydroxymethyl)-1H-pyrazolo[3,4-d]pyrimidin-1-yl)-3,4-dihydroxytetrahydrofuran-2-yl)methoxy)-1-methoxy-3-(2H-tetrazol-5-yl)propan-2-yl)phosphonic acid] | ≤ 10

More lines, now with the values ahead:

IC50 [nM] | SMILES
≤ 10 | O=P(O)(O)C(CO)(CCc1nnn[nH]1)OC[C@H]1O[C@@H](n2ncc3c(NC4CCCC4)nc(Cl)nc32)[C@H](O)[C@@H]1O (stereo partly drawn) [Example 18, (2-(((2R,3S,4R,5R)-5-(6-chloro-4-(cyclopentylamino)-1H-pyrazolo[3,4-d]pyrirnidin-1-yl)-3,4-dihydroxytetrahydrofuran-2-yl)methoxy)-1-hydroxy-4-(1H-tetrazol-5-yl)butan-2-yl)phosphonic acid]
≤ 10 | O=c1[nH]c(C[C@@](CO)(OC[C@H]2O[C@@H](n3ncc4c(NC5CCCC5)nc(Cl)nc43)[C@H](O)[C@@H]2O)P(=O)(O)O)no1 [Example 26, ((R)-2-(((2R,3S,4R,5R)-5-(6-chloro-4-(cyclopentylamino)-1H-pyrazolo[3,4-d]pyrimidin-1-yl)-3,4-dihydroxytetrahydrofuran-2-yl)methoxy)-1-hydroxy-3-(5-oxo-4,5-dihydro-1,2,4-oxadiazol-3-yl)propan-2-yl)phosphonic acid]
≤ 10 | O=P(O)(O)[C@](CO)(COCc1nn[nH]n1)OC[C@H]1O[C@@H](n2ncc3c(NC4CCC4)nc(Cl)nc32)[C@H](O)[C@@H]1O [Example 52, ((R)-1-((1H-tetrazol-5-yl)methoxy)-2-(((2R,3S,4R,5R)-5-(6-chloro-4-(cyclobutylamino)-1H-pyrazolo[3,4-d]pyrimidin-1-yl)-3,4-dihydroxytetrahydrofuran-2-yl)methoxy)-3-hydroxypropan-2-yl)phosphonic acid]
≤ 10 | COC[C@@](OC[C@H]1O[C@@H](n2ncc3c(NC4CCCC4)nc(Cl)nc32)[C@H](O)[C@@H]1O)(C(=O)NO)P(=O)(O)O [Example 37, ((S)-2-(((2R,3S,4R,5R)-5-(6-chloro-4-(cyclopentylamino)-1H-pyrazolo[3,4-d]pyrimidin-1-yl)-3,4-dihydroxytetrahydrofuran-2-yl)methoxy)-1-(hydroxyamino)-3-methoxy-1-oxopropan-2-yl)phosphonic acid]
≤ 10 | O=P(O)(O)[C@](CO)(COCc1nn[nH]n1)OC[C@H]1O[C@@H](n2ncc3c(NC4CCCC4)nc(Cl)nc32)[C@H](O)[C@@H]1O [Example 24, ((R)-1-((2H-tetrazol-5-yl)methoxy)-2-(((2R,3S,4R,5R)-5-(6-chloro-4-(cyclopentylamino)-1H-pyrazolo[3,4-d]pyrimidin-1-yl)-3,4-dihydroxytetrahydrofuran-2-yl)methoxy)-3-hydroxypropan-2-yl)phosphonic acid]
10 to 100 | O=P(O)(O)C(CO)(OC[C@H]1O[C@@H](n2ncc3c(NC4CCCC4)nc(Cl)nc32)[C@H](O)[C@@H]1O)c1nn[nH]n1 (stereo partly drawn) [Example 49, (1-(((2R,3S,4R,5R)-5-(6-chloro-4-(cyclopentylamino)-1H-pyrazolo[3,4-d]pyrimidin-1-yl)-3,4-dihydroxytetrahydrofuran-2-yl)methoxy)-2-hydroxy-1-(2H-tetrazol-5-yl)ethyl)phosphonic acid]
≤ 10 | COCCOCC(COCc1nnn[nH]1)(OC[C@H]1O[C@@H](n2ncc3c(NC4CCCC4)nc(Cl)nc32)[C@H](O)[C@@H]1O)P(=O)(O)O (stereo partly drawn) [Example 40, (1-((1H-tetrazol-5-yl)methoxy)-2-(((2R,3S,4R,5R)-5-(6-chloro-4-(cyclopentylamino)-1H-pyrazolo[3,4-d]pyrimidin-1-yl)-3,4-dihydroxytetrahydrofuran-2-yl)methoxy)-3-(2-methoxyethoxy)propan-2-yl)phosphonic acid]
≤ 10 | COCC(CCC(=O)O)(OC[C@H]1O[C@@H](n2ncc3c(NC4CCCC4)nc(Cl)nc32)[C@H](O)[C@@H]1O)P(=O)(O)O (stereo partly drawn) [Example 6, 4-(((2R,3S,4R,5R)-5-(6-chloro-4-(cyclopentylamino)-1H-pyrazolo[3,4-d]pyrimidin-1-yl)-3,4-dihydroxytetrahydrofuran-2-yl)methoxy)-5-methoxy-4-phosphonopentanoic acid]
10 to 100 | O=P(O)(O)C(CO)(Cc1c[nH]nn1)OC[C@H]1O[C@@H](n2ncc3c(NC4CCCC4)nc(Cl)nc32)[C@H](O)[C@@H]1O (stereo partly drawn) [Example 13, (2-(((2R,3S,4R,5R)-5-(6-chloro-4-(cyclopentylamino)-1H-pyrazolo[3,4-d]pyrimidin-1-yl)-3,4-dihydroxytetrahydrofuran-2-yl)methoxy)-1-hydroxy-3-(1H-1,2,3-triazol-4-yl)propan-2-yl)phosphonic acid]
10 to 100 | COCC(OC[C@H]1O[C@@H](n2ncc3c(NC4CCCC4)nc(Cl)nc32)[C@H](O)[C@@H]1O)(C(=O)N(C)C)P(=O)(O)O (stereo partly drawn) [Example 15, (2-(((2R,3S,4R,5R)-5-(6-chloro-4-(cyclopentylamino)-1H-pyrazolo[3,4-d]pyrimidin-1-yl)-3,4-dihydroxytetrahydrofuran-2-yl)methoxy)-1-(dimethylamino)-3-methoxy-1-oxopropan-2-yl)phosphonic acid]
10 to 100 | COC[C@](COCC(=O)O)(OC[C@H]1O[C@@H](n2ncc3c(NC4CCCC4)nc(Cl)nc32)[C@H](O)[C@@H]1O)P(=O)(O)O [Example 10]
